In ChEMBL document CHEMBL1201862, “PubChem BioAssay data set” (2004):
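Following 48 hours of exposure in 96-well plates, responses at five concentrations were used to interpolate endpoints linearly. GI50 is the concentration that inhibits growth by half.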 Active and inactive are the calls of the source. Cut-off read from the data, not from the text of the source: active = GI50 up to about 1.1 µM and inactive = higher.

Experiments:
Assay in all cases: NCI anticancer screen, dose series, 48 h
A498 = test system: A498
A549 = test system: A549
CAKI-1 = test system: CAKI-1
CCRF-CEM = test system: CCRF-CEM
COLO 205 = test system: COLO 205
DMS-114 = test system: DMS-114
DMS-273 = test system: DMS-273
EKVX = test system: EKVX
HCC 2998 = test system: HCC 2998
HCT-116 = test system: HCT-116
HCT-15 = test system: HCT-15
HL-60 = test system: HL-60
HOP-18 = test system: HOP-18
HOP-62 = test system: HOP-62
HOP-92 = test system: HOP-92
HT-29 = test system: HT-29
IGROV-1 = test system: IGROV-1
K562 = test system: K562
KM-20L2 = test system: KM-20L2
KM12 = test system: KM12
LOX IMVI = test system: LOX IMVI
M19-MEL = test system: M19-MEL
MCF7 = test system: MCF7
MOLT-4 = test system: MOLT-4
Malme-3M = test system: Malme-3M
NCI-H226 = test system: NCI-H226
NCI-H23 = test system: NCI-H23
NCI-H460 = test system: NCI-H460
NCI/ADR-RES = test system: NCI/ADR-RES
OVCAR-3 = test system: OVCAR-3
OVCAR-4 = test system: OVCAR-4
OVCAR-5 = test system: OVCAR-5
OVCAR-8 = test system: OVCAR-8
RPMI-8226 = test system: RPMI-8226
RXF 393 = test system: RXF 393
SF-295 = test system: SF-295
SF-539 = test system: SF-539
SK-MEL-2 = test system: SK-MEL-2
SK-MEL-5 = test system: SK-MEL-5
SK-OV-3 = test system: SK-OV-3
SNB-19 = test system: SNB-19
SNB-75 = test system: SNB-75
SNB-78 = test system: SNB-78
SW-620 = test system: SW-620
UACC-257 = test system: UACC-257
UACC-62 = test system: UACC-62
XF498 = test system: XF498

CCCSc1nc(COC(=O)NC)c(COC(=O)NC)n1C
GI50 (A498): > 62.7 µM (inactive)
GI50 (A549): > 100 µM (inactive)
GI50 (CAKI-1): 48.1 µM (inactive)
GI50 (CCRF-CEM): 20.7 µM (inactive)
GI50 (COLO 205): > 100 µM (inactive)
GI50 (DMS-114): 38.7 µM (inactive)
GI50 (DMS-273): > 95.5 µM (inactive)
GI50 (EKVX): > 100 µM (inactive)
GI50 (HCC 2998): > 100 µM (inactive)
GI50 (HCT-116): > 100 µM (inactive)
GI50 (HCT-15): > 83 µM
GI50 (HL-60): 43.9 µM (inactive)
GI50 (HOP-18): > 100 µM (inactive)
GI50 (HOP-62): > 100 µM (inactive)
GI50 (HOP-92): > 71 µM (inactive)
GI50 (HT-29): > 100 µM (inactive)
GI50 (IGROV-1): > 100 µM (inactive)
GI50 (K562): 31.4 µM (inactive)
GI50 (KM-20L2): > 100 µM (inactive)
GI50 (KM12): > 100 µM (inactive)
GI50 (LOX IMVI): > 100 µM (inactive)
GI50 (M19-MEL): > 95.1 µM (inactive)
GI50 (MCF7): 47.6 µM (inactive)
GI50 (MOLT-4): 27.7 µM (inactive)
GI50 (Malme-3M): > 100 µM (inactive)
GI50 (NCI-H226): > 100 µM (inactive)
GI50 (NCI-H23): > 78.5 µM (inactive)
GI50 (NCI-H460): 54.7 µM (inactive)
GI50 (NCI/ADR-RES): > 100 µM (inactive)
GI50 (OVCAR-3): > 100 µM (inactive)
GI50 (OVCAR-4): > 100 µM (inactive)
GI50 (OVCAR-5): > 100 µM (inactive)
GI50 (OVCAR-8): > 100 µM (inactive)
GI50 (RPMI-8226): 42 µM (inactive)
GI50 (RXF 393): 37.4 µM (inactive)
GI50 (SF-295): > 100 µM (inactive)
GI50 (SF-539): > 100 µM (inactive)
GI50 (SK-MEL-2): > 100 µM (inactive)
GI50 (SK-MEL-5): > 100 µM (inactive)
GI50 (SK-OV-3): > 100 µM (inactive)
GI50 (SNB-19): > 100 µM (inactive)
GI50 (SNB-75): > 91.2 µM (inactive)
GI50 (SNB-78): > 80.5 µM (inactive)
GI50 (SW-620): > 95.7 µM (inactive)
GI50 (UACC-257): > 100 µM (inactive)
GI50 (UACC-62): > 100 µM (inactive)
GI50 (XF498): > 100 µM (inactive)
